Key:
Type in all cases: in vivo
[1] = tested on: Echinochloa crus-galli (ECHCG); test: Pre-emergence glasshouse herbicide test; details: pre-emergence (sprayed after one day cultivation), 1000 g/h, evaluated after 13 days, five point scale
Procedure: (§1) Seeds of a variety of test species are sown in standard soil in pots (Lolium perenne (LOLPE), Solanum nigrum (SOLNI), Amaranthus retoflexus (AMARE), Setaria faberi (SETFA), Echinochloa crus-galli (ECHCG), Ipomoea hederacea (IPOHE)). After cultivation for one day (pre-emergence) or after 8 days cultivation (post-emergence) under controlled conditions in a glasshouse (at 24/16° C., day/night; 14 hours light; 65% humidity), the plants are sprayed with an aqueous spray solution derived from the formulation of the technical active ingredient in acetone/water (50:50) solution containing 0.5% Tween 20 (polyoxyethelyene sorbitan monolaurate, CAS RN 9005-64-5). Compounds are applied at 1000 g/h. The test plants are then grown in a glasshouse under controlled conditions in a glasshouse (at 24/16° C., day/night; 14 hours light; 65% humidity) and watered twice daily. After 13 days for pre and post-emergence, the test is evaluated for the percentage damage caused to the plant. The biological activities are shown in the following table on a five point scale (5=80-100%; 4=60-79%; 3=40-59%; 2=20-39%; 1=0-19%).

Solanum nigrum (SOLNI) [2] = test: Pre-emergence glasshouse herbicide test; details: pre-emergence (sprayed after one day cultivation), 1000 g/h, evaluated after 13 days, five point scale
Procedure: as §1

[3] = tested on: Amaranthus retoflexus (AMARE); test: Pre-emergence glasshouse herbicide test; details: pre-emergence (sprayed after one day cultivation), 1000 g/h, evaluated after 13 days, five point scale
Procedure: as §1

[4] = tested on: Ipomoea hederacea (IPOHE); test: Pre-emergence glasshouse herbicide test; details: pre-emergence (sprayed after one day cultivation), 1000 g/h, evaluated after 13 days, five point scale
Procedure: as §1

Lolium perenne (LOLPE) [5] = test: Pre-emergence glasshouse herbicide test; details: pre-emergence (sprayed after one day cultivation), 1000 g/h, evaluated after 13 days, five point scale
Procedure: as §1

Setaria faberi (SETFA) [6] = test: Pre-emergence glasshouse herbicide test; details: pre-emergence (sprayed after one day cultivation), 1000 g/h, evaluated after 13 days, five point scale
Procedure: as §1

[7] = tested on: Echinochloa crus-galli (ECHCG); test: Post-emergence glasshouse herbicide test; details: post-emergence (sprayed after 8 days cultivation), 1000 g/h, evaluated after 13 days, five point scale
Procedure: as §1

Solanum nigrum (SOLNI) [8] = test: Post-emergence glasshouse herbicide test; details: post-emergence (sprayed after 8 days cultivation), 1000 g/h, evaluated after 13 days, five point scale
Procedure: as §1

[9] = tested on: Amaranthus retoflexus (AMARE); test: Post-emergence glasshouse herbicide test; details: post-emergence (sprayed after 8 days cultivation), 1000 g/h, evaluated after 13 days, five point scale
Procedure: as §1

[10] = tested on: Ipomoea hederacea (IPOHE); test: Post-emergence glasshouse herbicide test; details: post-emergence (sprayed after 8 days cultivation), 1000 g/h, evaluated after 13 days, five point scale
Procedure: as §1

Lolium perenne (LOLPE) [11] = test: Post-emergence glasshouse herbicide test; details: post-emergence (sprayed after 8 days cultivation), 1000 g/h, evaluated after 13 days, five point scale
Procedure: as §1

Setaria faberi (SETFA) [12] = test: Post-emergence glasshouse herbicide test; details: post-emergence (sprayed after 8 days cultivation), 1000 g/h, evaluated after 13 days, five point scale
Procedure: as §1

Row | Structure (SMILES) | percentage damage caused to the plant, ECHCG, PRE Application [1] | percentage damage caused to the plant, SOLNI, PRE Application (Solanum nigrum (SOLNI) [2]) | percentage damage caused to the plant, AMARE, PRE Application [3] | percentage damage caused to the plant, IPOHE, PRE Application [4] | percentage damage caused to the plant, LOLPE, PRE Application (Lolium perenne (LOLPE) [5]) | percentage damage caused to the plant, SETFA, PRE Application (Setaria faberi (SETFA) [6]) | percentage damage caused to the plant, ECHCG, POST Application [7] | percentage damage caused to the plant, SOLNI, POST Application (Solanum nigrum (SOLNI) [8]) | percentage damage caused to the plant, AMARE, POST Application [9] | percentage damage caused to the plant, IPOHE, POST Application [10] | percentage damage caused to the plant, LOLPE, POST Application (Lolium perenne (LOLPE) [11]) | percentage damage caused to the plant, SETFA, POST Application (Setaria faberi (SETFA) [12])
1 | COc1ccc(-c2c(Cl)c(C(=O)Nc3nnnn3C)nn(C)c2=O)cc1OC [Compound 1.017] | 5 (5=80-100%) | 5 (5=80-100%) | 5 (5=80-100%) | 5 (5=80-100%) | 5 (5=80-100%) | 5 (5=80-100%) | 5 (5=80-100%) | 5 (5=80-100%) | 5 (5=80-100%) | 5 (5=80-100%) | 5 (5=80-100%) | 5 (5=80-100%)
2 | Cn1nnnc1NC(=O)c1nn(C)c(=O)c(-c2ccc(Cl)c(Cl)c2)c1Cl [Compound 1.019] | 5 (5=80-100%) | 5 (5=80-100%) | 5 (5=80-100%) | 3 (3=40-59%) | 5 (5=80-100%) | 5 (5=80-100%) | 5 (5=80-100%) | 5 (5=80-100%) | 3 (3=40-59%) | 4 (4=60-79%) | 5 (5=80-100%) | 5 (5=80-100%)
3 | Cc1ccc(C)c(-c2c(Cl)c(C(=O)Nc3nnnn3C)nn(C)c2=O)c1 [Compound 1.020] | 5 (5=80-100%) | 5 (5=80-100%) | 5 (5=80-100%) | 5 (5=80-100%) | 5 (5=80-100%) | 5 (5=80-100%) | 5 (5=80-100%) | 5 (5=80-100%) | 5 (5=80-100%) | 5 (5=80-100%) | 5 (5=80-100%) | 5 (5=80-100%)
4 | Cn1nnnc1NC(=O)c1nn(C)c(=O)c(-c2ccc(C(F)(F)F)cc2)c1Cl [Compound 1.023] | 5 (5=80-100%) | 5 (5=80-100%) | 4 (4=60-79%) | 2 (2=20-39%) | 5 (5=80-100%) | 5 (5=80-100%) | 5 (5=80-100%) | 5 (5=80-100%) | 2 (2=20-39%) | 2 (2=20-39%) | 5 (5=80-100%) | 5 (5=80-100%)
5 | Cn1nnnc1NC(=O)c1nn(C)c(=O)c(-c2cccc(C(F)(F)F)c2)c1Cl [Compound 1.030] | 5 (5=80-100%) | 5 (5=80-100%) | 5 (5=80-100%) | 2 (2=20-39%) | 5 (5=80-100%) | 5 (5=80-100%) | 5 (5=80-100%) | 5 (5=80-100%) | 5 (5=80-100%) | 4 (4=60-79%) | 5 (5=80-100%) | 5 (5=80-100%)
6 | CCOc1c(C(=O)Nc2nnnn2C)nn(C)c(=O)c1-c1ccccc1 [Compound 1.031] | 5 (5=80-100%) | 5 (5=80-100%) | 5 (5=80-100%) | 5 (5=80-100%) | 3 (3=40-59%) | 5 (5=80-100%) | 5 (5=80-100%) | 5 (5=80-100%) | 5 (5=80-100%) | 5 (5=80-100%) | 4 (4=60-79%) | 5 (5=80-100%)
7 | CCOc1c(C(=O)Nc2nnnn2C)nn(C)c(=O)c1-c1ccc(Cl)c(Cl)c1 [Compound 1.032] | 5 (5=80-100%) | 5 (5=80-100%) | 5 (5=80-100%) | 4 (4=60-79%) | 4 (4=60-79%) | 5 (5=80-100%) | 5 (5=80-100%) | 5 (5=80-100%) | 5 (5=80-100%) | 4 (4=60-79%) | 4 (4=60-79%) | 5 (5=80-100%)
